target: T1, mouse TRPM3α2 (mTRPM3) ion channel (Mus musculus, UniProt J9SQF3); assay: TRPM3 ion channel driven Ca2+ uptake, Fluo-4 AM assay, PS-stimulated (mTRPM3); type: cell-based; settings: TRPM3 overexpressing flip-in HEK293 cells stimulated with Pregnenolone sulfate (PS) 50 μM, activity ranges A, B, C
T1 construct: expressed in transfected cells; host or cells: flip-in HEK293
Method in brief: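 Flp-In HEK293 cells overexpressing mTRPM3α2 were added, in Ca²⁺-free Krebs, to wells already holding compound and 50 μM pregnenolone sulfate in Ca²⁺-containing Krebs. Fluo-4 AM fluorescence (ex 485/em 535 nm) was read immediately. Percent inhibition was computed from RFU relative to PS/vehicle wells and a positive-control inhibitor.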

T1 sequence (J9SQF3 1-1709 isoform J9SQF3-12): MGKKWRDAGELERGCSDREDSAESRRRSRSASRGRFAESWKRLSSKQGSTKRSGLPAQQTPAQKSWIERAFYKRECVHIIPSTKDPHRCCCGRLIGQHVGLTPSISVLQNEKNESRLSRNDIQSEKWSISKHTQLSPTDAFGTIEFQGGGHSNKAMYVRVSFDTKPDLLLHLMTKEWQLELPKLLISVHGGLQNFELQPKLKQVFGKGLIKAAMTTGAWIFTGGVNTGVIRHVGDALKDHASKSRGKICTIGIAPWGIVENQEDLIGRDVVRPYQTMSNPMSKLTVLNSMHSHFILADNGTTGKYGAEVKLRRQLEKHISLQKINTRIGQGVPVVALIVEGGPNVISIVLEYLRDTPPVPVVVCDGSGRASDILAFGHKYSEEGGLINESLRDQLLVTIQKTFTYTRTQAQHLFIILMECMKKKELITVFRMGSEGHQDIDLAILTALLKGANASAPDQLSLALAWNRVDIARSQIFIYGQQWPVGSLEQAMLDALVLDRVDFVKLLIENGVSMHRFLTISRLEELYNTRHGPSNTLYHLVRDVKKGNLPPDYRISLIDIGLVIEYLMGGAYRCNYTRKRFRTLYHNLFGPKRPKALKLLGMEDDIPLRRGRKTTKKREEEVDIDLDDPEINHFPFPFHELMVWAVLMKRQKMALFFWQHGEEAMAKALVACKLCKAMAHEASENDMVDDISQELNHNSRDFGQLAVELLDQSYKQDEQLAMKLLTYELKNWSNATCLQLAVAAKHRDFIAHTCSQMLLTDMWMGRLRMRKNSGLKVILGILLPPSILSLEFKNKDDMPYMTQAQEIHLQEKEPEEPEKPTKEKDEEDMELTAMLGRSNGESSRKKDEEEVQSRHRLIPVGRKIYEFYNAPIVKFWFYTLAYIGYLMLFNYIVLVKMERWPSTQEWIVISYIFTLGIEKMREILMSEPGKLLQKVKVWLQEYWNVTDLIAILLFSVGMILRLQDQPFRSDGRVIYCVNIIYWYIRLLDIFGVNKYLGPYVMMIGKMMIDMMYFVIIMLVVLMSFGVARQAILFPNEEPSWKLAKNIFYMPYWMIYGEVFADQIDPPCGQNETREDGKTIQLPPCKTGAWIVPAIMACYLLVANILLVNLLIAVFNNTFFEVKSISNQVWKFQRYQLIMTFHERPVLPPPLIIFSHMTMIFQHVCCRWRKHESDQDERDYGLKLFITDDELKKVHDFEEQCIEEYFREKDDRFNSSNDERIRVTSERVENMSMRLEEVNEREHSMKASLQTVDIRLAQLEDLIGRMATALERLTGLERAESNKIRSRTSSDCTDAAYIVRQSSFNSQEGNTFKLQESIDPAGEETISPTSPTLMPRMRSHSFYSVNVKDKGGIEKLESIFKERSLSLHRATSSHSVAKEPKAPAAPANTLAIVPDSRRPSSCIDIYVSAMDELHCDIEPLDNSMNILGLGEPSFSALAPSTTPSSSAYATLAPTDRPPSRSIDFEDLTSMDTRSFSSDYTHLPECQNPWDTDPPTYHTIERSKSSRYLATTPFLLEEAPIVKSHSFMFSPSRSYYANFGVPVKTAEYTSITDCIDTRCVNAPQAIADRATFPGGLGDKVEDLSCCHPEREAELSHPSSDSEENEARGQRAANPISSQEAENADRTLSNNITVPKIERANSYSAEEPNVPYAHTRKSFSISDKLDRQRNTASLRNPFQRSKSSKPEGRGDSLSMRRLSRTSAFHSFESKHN

Structure (SMILES) | IC50 [nM]
Cc1oc2cc(C#N)c(OCc3ccccc3)cc2c1C(=O)NC1CNCC1(F)F (single isomer, unassigned) [Cpd 301-En 2, 5-(benzyloxy)-6-cyano-N-(4,4-difluoropyrrolidin-3-yl)-2-methylbenzofuran-3-carboxamide] | > 20000
Cc1ccc(COc2ccc3oc(C)c(C(=O)N[C@@H](CO)C(N)=O)c3c2)c(F)c1 [Cpd 342, (S)—N-(1-amino-3-hydroxy-1-oxopropan-2-yl)-5-((2-fluoro-4-methylbenzyl)oxy)-2-methylbenzofuran-3-carboxamide] | < 1000
Cc1oc2ccc(OCc3c(F)cccc3F)cc2c1C(=O)N[C@H]1CCNC1 [Cpd 136, (S)-5-((2,6-difluorobenzyl)oxy)-2-methyl-N-(pyrrolidin-3-yl)benzofuran-3-carboxamide] | < 1000
Cc1oc2ccc(OCc3ccccc3)cc2c1C(=O)NCCCN(C)C [Cpd 091, 5-(benzyloxy)-N-(3-(dimethylamino)propyl)-2-methylbenzofuran-3-carboxamide] | 1000 to 20000
Cc1oc2ccc(OCc3cccc(F)c3)cc2c1C(=O)NCC1CCCO1 (stereo not drawn) [Cpd 132, 5-((3-fluorobenzyl)oxy)-2-methyl-N-((tetrahydrofuran-2-yl)methyl)benzofuran-3-carboxamide] | < 1000
Cc1oc2ccc(OCc3ccccc3)cc2c1C(=O)N[C@H]1C[C@H]2C(=O)N(C)CC(=O)N2C1 [Cpd 235, 5-(benzyloxy)-2-methyl-N-((7S,8aS)-2-methyl-1,4-dioxooctahydropyrrolo[1,2-a]pyrazin-7-yl)benzofuran-3-carboxamide] | 1000 to 20000
Cc1oc2ccc(OCc3ccccc3)cc2c1C(=O)N[C@@H]1CCCN(C2COC2)C1 [Cpd 207, (R)-5-(benzyloxy)-2-methyl-N-(1-(oxetan-3-yl)piperidin-3-yl)benzofuran-3-carboxamide] | < 1000
Cc1oc2ccc(OCc3ccccc3OCCN(C)C)cc2c1C(=O)NC1CCN(C)CC1 [Cpd 250, 5-((2-(2-(dimethylamino)ethoxy)benzyl)oxy)-2-methyl-N-(1-methylpiperidin-4-yl)benzofuran-3-carboxamide] | > 20000
Cc1oc2ccc(OCc3cccc(Cl)c3)cc2c1C(=O)O [Cpd 017, 5-((3-chlorobenzyl)oxy)-2-methylbenzofuran-3-carboxylic acid] | 1000 to 20000
Cc1oc2ccc(OCc3ccccc3C(F)(F)F)cc2c1C(=O)NC1CCN(C)CC1 [Cpd 233, 2-methyl-N-(1-methylpiperidin-4-yl)-5-((2-(trifluoromethyl)benzyl)oxy)benzofuran-3-carboxamide] | 1000 to 20000
Cc1oc2c(C#N)cc(OCc3ccccc3)cc2c1C(=O)NC1CNCC1(F)F (single isomer, unassigned) [Cpd 305-En 1, 5-(benzyloxy)-7-cyano-N-(4,4-difluoropyrrolidin-3-yl)-2-methylbenzofuran-3-carboxamide] | > 20000
Cc1oc2ccc(OCc3ccccc3)cc2c1C(=O)NCc1ccccn1 [Cpd 099, 5-(benzyloxy)-2-methyl-N-(pyridin-2-ylmethyl)benzofuran-3-carboxamide] | 1000 to 20000
Cc1oc2c(F)cc(OCc3ccccc3)cc2c1C(=O)NC1CNCC1(F)F (single isomer, unassigned) [Cpd 306-En 1] | < 1000
Cc1oc2ccc(OCc3ccccc3)cc2c1C(=O)N[C@H]1CC2CC[C@H](C1)N2C(=O)OC(C)(C)C [Cpd 258, tert-butyl (1R,3s,5S)-3-(5-(benzyloxy)-2-methylbenzofuran-3-carboxamido)-8-azabicyclo-[3.2.1]octane-8-carboxylate] | < 1000
Cc1oc2ccc(OCc3ccccc3)cc2c1C(=O)N[C@H]1CN[C@H](C(N)=O)C1 [Cpd 158, (2S,4R)-4-(5-(benzyloxy)-2-methylbenzofuran-3-carboxamido)pyrrolidine-2-carboxamide] | < 1000
Cc1oc2ccc(OCc3ccccc3)cc2c1C(=O)NC1CNC1 [Cpd 042, N-(azetidin-3-yl)-5-(benzyloxy)-2-methylbenzofuran-3-carboxamide] | > 20000
Cc1oc2cc(Cl)c(OCc3ccccc3)cc2c1C(=O)NC1CNCC1(F)F (single isomer, unassigned) [Cpd 300-En 2, 5-(benzyloxy)-6-chloro-N-(4,4-difluoropyrrolidin-3-yl)-2-methylbenzofuran-3-carboxamide] | > 20000
Cc1oc2ccc(OCc3ccccc3)cc2c1C(=O)NC1CC(=O)N(C)C1 (stereo not drawn) [Cpd 110, 5-(benzyloxy)-2-methyl-N-(1-methyl-5-oxopyrrolidin-3-yl)benzofuran-3-carboxamide] | 1000 to 20000
Cc1oc2ccc(OCc3ccccc3F)cc2c1C(=O)NC(C)CO (single isomer, unassigned) [Cpd 328-En 1] | < 1000
Cc1oc2ccc(COc3ccccc3F)cc2c1C(=O)NC(C)C(N)=O (single isomer, unassigned) [Cpd 320-En 2] | < 1000
COc1ccccc1COc1ccc2oc(C)c(C(=O)O)c2c1 [Cpd 013, 5-((2-methoxybenzyl)oxy)-2-methylbenzofuran-3-carboxylic acid] | 1000 to 20000

Structure (SMILES) | IC50 [nM]
Cc1oc2ccc(OCc3ccccc3)cc2c1C(=O)N[C@H]1CCCNC1=O [Cpd 109, (S)-5-(benzyloxy)-2-methyl-N-(2-oxopiperidin-3-yl)benzofuran-3-carboxamide] | < 1000
Cc1oc2ccc(OCc3ccc(Cl)cc3)cc2c1C(=O)O [Cpd 016, 5-((4-chlorobenzyl)oxy)-2-methylbenzofuran-3-carboxylic acid] | 1000 to 20000
Cc1oc2ccc(OCc3ccccc3F)cc2c1C(=O)N[C@@H]1COC[C@@H]1O (single isomer, unassigned) [Cpd 329-En 2] | < 1000
Cc1oc2ccc(OCc3ccccc3)c(C#N)c2c1C(=O)NC1CNCC1(F)F (single isomer, unassigned) [Cpd 297-En 1, 5-(benzyloxy)-4-cyano-N-(4,4-difluoropyrrolidin-3-yl)-2-methylbenzofuran-3-carboxamide] | < 1000
Cc1oc2ccc(OCc3ccccc3)cc2c1C(=O)NC1CCNC1=O (stereo not drawn) [Cpd 071, 5-(benzyloxy)-2-methyl-N-(2-oxopyrrolidin-3-yl)benzofuran-3-carboxamide] | < 1000
Cc1oc2ccc(OCc3ccccc3S(C)(=O)=O)cc2c1C(=O)NC1CCN(C)CC1 [Cpd 242, 2-methyl-N-(1-methylpiperidin-4-yl)-5-((2-(methylsulfonyl)benzyl)oxy)benzofuran-3-carboxamide] | > 20000
Cc1oc2ccc(OCc3ccccc3F)cc2c1C(=O)NC1CCNCC1(F)F (stereo not drawn) [Cpd 201, N-(3,3-difluoropiperidin-4-yl)-5-((2-fluorobenzyl)oxy)-2-methylbenzofuran-3-carboxamide] | < 1000
Cc1oc2ccc(OCc3ccccc3)cc2c1C(=O)NC1CCNCC1F (stereo not drawn) [Cpd 131, 5-(benzyloxy)-N-(3-fluoropiperidin-4-yl)-2-methylbenzofuran-3-carboxamide] | < 1000
Cc1oc2ccc(OCc3ccccc3)cc2c1C(=O)NS(C)(=O)=O [Cpd 063, 5-(benzyloxy)-2-methyl-N-(methylsulfonyl)benzofuran-3-carboxamide] | 1000 to 20000
CCOC(=O)c1coc2ccc(OCc3ccccc3)cc12 [Cpd 029, ethyl 5-(benzyloxy)benzofuran-3-carboxylate] | > 20000
Cc1oc2ccc(OCc3ccccc3)cc2c1C(=O)NC1CCN2CCCC12 (stereo not drawn) [Cpd 144, 5-(benzyloxy)-N-(hexahydro-1H-pyrrolizin-1-yl)-2-methylbenzofuran-3-carboxamide] | < 1000
Cc1oc2ccc(OCc3ccccc3)cc2c1C(=O)N1CCC(C)CC1 [Cpd 067, (5-(benzyloxy)-2-methylbenzofuran-3-yl)(4-methylpiperidin-1-yl)methanone] | 1000 to 20000
Cc1oc2ccc(OCc3ccccc3F)cc2c1C(=O)NC1CCN(CCO)C1=O (single isomer, unassigned) [Cpd 311-En 2, 5-((2-Fluorobenzyl)oxy)-N-(1-(2-hydroxyethyl)-2-oxopyrrolidin-3-yl)-2-methylbenzofuran-3-carboxamide] | < 1000
Cc1cc2oc(C)c(C(=O)NC3CNCC3(F)F)c2cc1OCc1ccccc1 (single isomer, unassigned) [Cpd 303-En 1, 5-(benzyloxy)-N-(4,4-difluoropyrrolidin-3-yl)-2,6-dimethylbenzofuran-3-carboxamide] | 1000 to 20000
COCCNC(=O)c1c(C)oc2ccc(OCc3ccccc3)cc12 [Cpd 044, 5-(benzyloxy)-N-(2-methoxyethyl)-2-methylbenzofuran-3-carboxamide] | 1000 to 20000
Cc1oc2ccc(OC3CCc4ccccc43)cc2c1C(=O)O (stereo not drawn) [Cpd 011, 5-((2,3-dihydro-1H-inden-1-yl)oxy)-2-methylbenzofuran-3-carboxylic acid] | 1000 to 20000
Cc1oc2ccc(OCc3cccc(CN)c3)cc2c1C(=O)NC1CCNC1=O (stereo not drawn) [Cpd 157, 5-((3-(aminomethyl)benzyl)oxy)-2-methyl-N-(2-oxopyrrolidin-3-yl)benzofuran-3-carboxamide] | > 20000
Cc1oc2ccc(OCc3ccc(C#N)cc3)cc2c1C(=O)N[C@H]1CCNC1 [Cpd 103, (S)-5-((4-cyanobenzyl)oxy)-2-methyl-N-(pyrrolidin-3-yl)benzofuran-3-carboxamide] | 1000 to 20000
Cc1oc2ccc(OC(CN(C)C)c3ccccc3)cc2c1C(=O)N[C@@H](CO)C(N)=O (single isomer, unassigned) [Cpd 347-En 2] | < 1000
Cc1oc2ccc(OCc3ccccc3)cc2c1C(=O)NC1CCN(C)C(C)C1 (stereo not drawn) [Cpd 155, 5-(benzyloxy)-N-(1,2-dimethylpiperidin-4-yl)-2-methylbenzofuran-3-carboxamide] | < 1000
Cc1oc2ccc(OCc3ccccc3)cc2c1C(=O)NC1CCCN(C(=O)OC(C)(C)C)C1 (stereo not drawn) [Cpd 247, tert-butyl 3-(5-(benzyloxy)-2-methylbenzofuran-3-carboxamido)piperidine-1-carboxylate] | > 20000
